Earlier results, collected in US11268059B2, “Apparatuses, systems, and methods for culturing cells” (eXo Cell, LLC, priority 2015, dated 2022).

What was measured:
[1] = tested on: obese, diabetic yellow KK mice
BAT = settings: humans
[2] = tested on: isolated adipocytes and differentiated adipocytes (diffAds)
ex vivo human adipocytes = settings: Ang II stimulation

In the case of `O=S(=O)(Nc1ccc(CCNC[C@H](O)c2cccnc2)cc1)c1ccc(-c2nc(-c3ccc(C(F)(F)F)cc3)cs2)cc1` [L-796568], the anti-obesity effects (obese human males) is given as “did not generate notable anti-obesity effects” and the energy expenditure (obese human males) is given as “improved energy expenditure”.
For `C[C@H](Cc1ccc2c(c1)OC(C(=O)[O-])(C(=O)[O-])O2)NC[C@H](O)c1cccc(Cl)c1.[Na+].[Na+]` [CL-316243], the effect on obesity [1] is given as “ameliorated obesity”.
For `Nc1nc(CC(=O)Nc2ccc(CCNC[C@H](O)c3ccccc3)cc2)cs1` [migrabegron], the BAT activation (BAT) is given as “activates BAT”.
For “angiotensin II (DRVYIHPF; Angiotensin-2; UniProt P01019 25-32, looked up) [Ang II, angiotensin II, component of the renin-angiotensin system]”, the adipogenesis [2] is given as “may induce adipogenesis” and the lipolysis (ex vivo human adipocytes) is given as “inhibited lipolysis”.
